Results from patent US10370412B2, “Beta-hairpin peptidomimetics” (Polyphor AG, priority 2013, dated 2019).
Where a SMILES comes first, the peptide text is derived from it. [ ]: non-standard residue; d: D form. Pro(3S-OH) = O=C(O)[C@H]1NCC[C@@H]1O; Dap(CONH2) = NC(=O)NC[C@H](N)C(=O)O; Cha = N[C@@H](CC1CCCCC1)C(=O)O; aThr = C[C@H](O)[C@H](N)C(=O)O; Tle = CC(C)(C)[C@H](N)C(=O)O; dDab = NCC[C@@H](N)C(=O)O; hSer = N[C@@H](CCO)C(=O)O; Orn = NCCC[C@H](N)C(=O)O; Api = NC1(C(=O)O)CCNCC1; Dab = NCC[C@H](N)C(=O)O; Nva = CCC[C@H](N)C(=O)O

System: human red blood cells (hRBC)
Format: cell-based
Settings: red cells of human, 1 h
Protocol: The peptides were tested for their hemolytic activity against human red blood cells (hRBC). Fresh hRBC were washed three times with phosphate buffered saline (PBS) and centrifuged for 10 min at 2000×g. Compounds (100 μg/ml) were incubated with 20% hRBC (v/v) for 1 h at 37° C. and shaking at 300 rpm. The final erythrocyte concentration was approximately 0.9×10^9 cells/ml. A value of 0% and 100% cell lyses, respectively, was determined by incubation of hRBC in the presence of PBS containing 0.001% acetic acid and 2.5% Triton X-100 in H2O, respectively. The samples were centrifuged, the supernatants were 8-fold diluted in PBS buffer and the optical densities (OD) were measured at 540 nm. The 100% lyses value (OD540H2O) gave an OD540 of approximately 0.5-1.0. Percent hemolysis was calculated as follows: (OD540peptide/OD540H2O)×100%.

SMILES	Hemolysis at 100 μg/ml
C[C@@H]1NC(=O)[C@H](C(C)(C)C)NC(=O)[C@H](CCO)NC(=O)[C@H](Cc2c[nH]c3ccccc23)NC(=O)[C@H](CCN)NC(=O)[C@@H](CCN)NC(=O)[C@H](CCCN)NC(=O)[C@H](CCN)NC(=O)[C@H](Cc2ccc(O)cc2)NC(=O)[C@H](Cc2c[nH]cn2)NC(=O)[C@H](Cc2c[nH]c3ccccc23)NC(=O)[C@@H]2CCCN2C(=O)[C@H]2CCCN2C(=O)[C@H](CO)NC1=O [Ex. 1, cyclo(-Trp-His-Tyr-Dab-Orn-^DDab-Dab-Trp-Hse-tBuGly-Ala-Ser-^DPro-Pro-)] (cyclo(WHY[Dab][Orn][dDab][Dab]W[hSer][Tle]AS[dP]P))	1%
C[C@@H]1NC(=O)[C@H](C(C)(C)C)NC(=O)[C@H](CCN)NC(=O)[C@H](Cc2c[nH]c3ccccc23)NC(=O)[C@H](CCN)NC(=O)[C@@H](CCN)NC(=O)[C@H](CCCCN)NC(=O)[C@H](CCN)NC(=O)[C@H](CC2CCCCC2)NC(=O)[C@H](Cc2c[nH]c3ccccc23)NC(=O)[C@H](Cc2c[nH]c3ccccc23)NC(=O)[C@@H]2CCCN2C(=O)[C@H]2CCCN2C(=O)[C@H](CO)NC1=O [Ex. 11, cyclo(-Trp-Trp-Cha-Dab-Lys-^DDab-Dab-Trp-Dab-tBuGly-Ala-Ser-^DPro-Pro-)] (cyclo(WW[Cha][Dab]K[dDab][Dab]W[Dab][Tle]AS[dP]P))	1%
CC(C)(C)[C@@H]1NC(=O)[C@H](CCN)NC(=O)[C@H](Cc2c[nH]c3ccccc23)NC(=O)[C@H](CCN)NC(=O)C2(CCNCC2)NC(=O)[C@H](CCCN)NC(=O)[C@H](CCN)NC(=O)[C@H](CC2CCCCC2)NC(=O)[C@H](Cc2c[nH]cn2)NC(=O)[C@H](Cc2c[nH]c3ccccc23)NC(=O)[C@@H]2[C@@H](O)CCN2C(=O)[C@H]2CCCN2C(=O)[C@H](CO)NC(=O)[C@H](CO)NC1=O [Ex. 14, cyclo(-Trp-His-Cha-Dab-Orn-Pip-Dab-Trp-Dab-tBuGly-Ser-Ser-^DPro-Pro((3S)OH)—)] (cyclo(WH[Cha][Dab][Orn][Api][Dab]W[Dab][Tle]SS[dP][Pro(3S-OH)]))	4%
CC(C)(C)[C@@H]1NC(=O)[C@H](CCN)NC(=O)[C@H](Cc2c[nH]c3ccccc23)NC(=O)[C@H](CCN)NC(=O)[C@@H](CCN)NC(=O)[C@H](CCCN)NC(=O)[C@H](CCN)NC(=O)[C@H](CC2CCCCC2)NC(=O)[C@H](Cc2c[nH]c3ccccc23)NC(=O)[C@H](Cc2c[nH]c3ccccc23)NC(=O)[C@@H]2[C@@H](O)CCN2C(=O)[C@H]2CCCN2C(=O)[C@H](CO)NC(=O)[C@H](CO)NC1=O [Ex. 15, cyclo(-Trp-Trp-Cha-Dab-Orn-^DDab-Dab-Trp-Dab-tBuGly-Ser-Ser-^DPro-Pro((3S)OH)—)] (cyclo(WW[Cha][Dab][Orn][dDab][Dab]W[Dab][Tle]SS[dP][Pro(3S-OH)]))	0%
COc1ccc(C[C@@H]2NC(=O)[C@H](Cc3c[nH]cn3)NC(=O)[C@H](Cc3c[nH]c4ccccc34)NC(=O)[C@@H]3CCCN3C(=O)[C@H]3CCCN3C(=O)[C@H](CO)NC(=O)[C@H](C)NC(=O)[C@H](C(C)(C)C)NC(=O)[C@H](CCO)NC(=O)[C@H](Cc3c[nH]c4ccccc34)NC(=O)[C@H](CCN)NC(=O)[C@@H](CCN)NC(=O)[C@H](CCCN)NC(=O)[C@H](CCN)NC2=O)cc1 [Ex. 16, cyclo(-Trp-His-Tyr(Me)-Dab-Orn-^DDab-Dab-Trp-Hse-tBuGly-Ala-Ser-^DPro-Pro-)] (cyclo(WHY(Me)[Dab][Orn][dDab][Dab]W[hSer][Tle]AS[dP]P))	1%
CC(C)C[C@@H]1NC(=O)[C@@H]2CCCN2C(=O)[C@H]2CCCN2C(=O)[C@H]([C@H](C)O)NC(=O)[C@H](C)NC(=O)[C@H](C(C)(C)C)NC(=O)[C@H](CCN)NC(=O)[C@H](Cc2c[nH]c3ccccc23)NC(=O)[C@H](CCN)NC(=O)[C@@H](CCN)NC(=O)[C@H](CCCN)NC(=O)[C@H](CCN)NC(=O)[C@H](CC2CCCCC2)NC(=O)[C@H](Cc2c[nH]cn2)NC1=O [Ex. 17, cyclo(-Leu-His-Cha-Dab-Orn-^DDab-Dab-Trp-Dab-tBuGly-Ala-alloThr-^DPro-Pro-)] (cyclo(LH[Cha][Dab][Orn][dDab][Dab]W[Dab][Tle]A[aThr][dP]P))	5%
C[C@@H]1NC(=O)[C@H](C(C)(C)C)NC(=O)[C@H](CCN)NC(=O)[C@H](Cc2c[nH]c3ccccc23)NC(=O)[C@H](CCN)NC(=O)[C@@H](CCN)NC(=O)[C@H](CCCN)NC(=O)[C@H](CCN)NC(=O)[C@H](Cc2ccc(O)cc2)NC(=O)[C@H](Cc2c[nH]cn2)NC(=O)[C@H](Cc2c[nH]c3ccccc23)NC(=O)[C@@H]2CCCN2C(=O)[C@H]2CCCN2C(=O)[C@H](CO)NC1=O [compound 2, cyclo(-Trp-His-Tyr-Dab-Orn-^DDab-Dab-Trp-Dab-tBuGly-Ala-Ser-^DPro-Pro-)] (cyclo(WHY[Dab][Orn][dDab][Dab]W[Dab][Tle]AS[dP]P))	1%
CCC[C@@H]1NC(=O)[C@H](CCN)NC(=O)[C@H](Cc2c[nH]c3ccccc23)NC(=O)[C@H](CCN)NC(=O)[C@@H](CCN)NC(=O)[C@H](CCCN)NC(=O)[C@H](CCN)NC(=O)[C@H](CC2CCCCC2)NC(=O)[C@H](Cc2c[nH]cn2)NC(=O)[C@H](Cc2c[nH]c3ccccc23)NC(=O)[C@@H]2CCCN2C(=O)[C@H]2CCCN2C(=O)[C@H](CO)NC(=O)[C@H](C)NC1=O [compound 3, cyclo(-Trp-His-Cha-Dab-Orn-^DDab-Dab-Trp-Dab-Nva-Ala-Ser-^DPro-Pro-)] (cyclo(WH[Cha][Dab][Orn][dDab][Dab]W[Dab][Nva]AS[dP]P))	3%
CC(C)[C@@H]1NC(=O)[C@H](C(C)(C)C)NC(=O)[C@H](CCN)NC(=O)[C@H](Cc2c[nH]c3ccccc23)NC(=O)[C@H](CCN)NC(=O)[C@@H](CCN)NC(=O)[C@H](CCCN)NC(=O)[C@H](CCN)NC(=O)[C@H](CC2CCCCC2)NC(=O)[C@H](Cc2c[nH]cn2)NC(=O)[C@H](Cc2c[nH]c3ccccc23)NC(=O)[C@@H]2CCCN2C(=O)[C@H]2CCCN2C(=O)[C@H](CO)NC1=O [compound 4, cyclo(-Trp-His-Cha-Dab-Orn-^DDab-Dab-Trp-Dab-tBuGly-Val-Ser-^DPro-Pro-)] (cyclo(WH[Cha][Dab][Orn][dDab][Dab]W[Dab][Tle]VS[dP]P))	5%
CC(C)C[C@@H]1NC(=O)[C@@H]2CCCN2C(=O)[C@H]2CCCN2C(=O)[C@H](CO)NC(=O)[C@H](C)NC(=O)[C@H](C(C)(C)C)NC(=O)[C@H](CCN)NC(=O)[C@H](Cc2c[nH]c3ccccc23)NC(=O)[C@H](CCN)NC(=O)[C@@H](CCN)NC(=O)[C@H](CCCN)NC(=O)[C@H](CCN)NC(=O)[C@H](Cc2ccc(O)cc2)NC(=O)[C@H](Cc2c[nH]cn2)NC1=O [compound 5, cyclo(-Leu-His-Tyr-Dab-Orn-^DDab-Dab-Trp-Dab-tBuGly-Ala-Ser-^DPro-Pro-)] (cyclo(LHY[Dab][Orn][dDab][Dab]W[Dab][Tle]AS[dP]P))	0%
CC(C)C[C@@H]1NC(=O)[C@@H]2CCCN2C(=O)[C@H]2CCCN2C(=O)[C@H](CO)NC(=O)[C@H](CNC(N)=O)NC(=O)[C@H](C(C)(C)C)NC(=O)[C@H](CCN)NC(=O)[C@H](Cc2c[nH]c3ccccc23)NC(=O)[C@H](CCN)NC(=O)C2(CCNCC2)NC(=O)[C@H](CCCN)NC(=O)[C@H](CCN)NC(=O)[C@H](CC2CCCCC2)NC(=O)[C@H](Cc2c[nH]cn2)NC1=O [compound 6, cyclo(-Leu-His-Cha-Dab-Orn-Pip-Dab-Trp-Dab-tBuGly-Alb-Ser-^DPro-Pro-)] (cyclo(LH[Cha][Dab][Orn][Api][Dab]W[Dab][Tle][Dap(CONH2)]S[dP]P))	3%
